# Reference: patent US20110040086A1, “Novel Beta-Lactam Antibiotics, Methods for Their Production, and Their Use” (DRITTE PATENTPORTFOLIO BETEILIGUNGSGESELLSCHAFT MB, priority 2007, published 2011)
# Experiments:
# S. aureus 36881 = assay: agar diffusion test (Test System II, multi-resistant germs); assay type: cell-based, Staphylococcus aureus; set-up: key: r = resistant (no detectable zone of inhibition)
# Procedure, shortened: (§1)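 A McFarland 0.5 bacterial suspension in physiological saline is spread vertically, horizontally and transversely over Müller-Hinton agar II. Three sensi-discs bearing 10, 50 and 100 μg of test compound go onto each plate, which then incubates at 37 °C for 18-20 h before zone diameters are recorded.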
# S. aureus 33490 = assay: as above; assay type: cell-based, Staphylococcus aureus; set-up: key: r = resistant (no detectable zone of inhibition)
# Procedure, shortened: as §1
# S. aureus 39105 = assay: as above; assay type: cell-based, Staphylococcus aureus; set-up: key: r = resistant (no detectable zone of inhibition)
# Procedure, shortened: as §1
# S. aureus 34289 = assay: as above; assay type: cell-based, Staphylococcus aureus; set-up: key: r = resistant (no detectable zone of inhibition)
# Procedure, shortened: as §1
# [1] = test system: S. aureus North Germany strain; assay: as above; assay type: cell-based, Staphylococcus aureus; set-up: key: r = resistant (no detectable zone of inhibition)
# Procedure, shortened: as §1
# S. aureus 520 = assay: as above; assay type: cell-based, Staphylococcus aureus; set-up: key: r = resistant (no detectable zone of inhibition)
# Procedure, shortened: as §1
# S. aureus 526 = assay: as above; assay type: cell-based, Staphylococcus aureus; set-up: key: r = resistant (no detectable zone of inhibition)
# Procedure, shortened: as §1
# [2] = test system: Staphylococcus aureus ATCC 6538; assay: mouse infected with Staphylococcus aureus infection model (survival); assay type: in vivo, BALB/c mice
# Procedure, shortened: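 Survival model: S. aureus grown to extinction 0.6 at 550 nm and injected i.p. (10 μl/g body weight) into cyclophosphamide-pretreated BALB/c mice (250 then 100 mg/kg i.p.), ≥3 animals per arm. Test antibiotic dosed i.p. at 30 min and again later at the same concentration, vehicle PBS/3% DMSO.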
# B. subtilis AWD 166 = assay: agar diffusion test (antimicrobial effect); assay type: cell-based, Bacillus subtilis
# Procedure, shortened: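 Inhibition zone diameters (mm) read after 20 h incubation at 37 °C. Discs carried 10 μg, 50 μg or 100 μg of test substance, dissolved in methanol or distilled water, on agar inoculated with B. subtilis AWD 166 for dense but separate colonies.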
# S. epidermidis 125 = assay: agar diffusion test (Test System II, multi-resistant germs); assay type: cell-based, Staphylococcus epidermidis
# Procedure, shortened: as §1
# [3] = test system: Staphylococcus aureus 315; assay: as above; assay type: cell-based; set-up: key: r = resistant (no detectable zone of inhibition)
# Procedure, shortened: as §1
# [4] = test system: Enterococcus faecalis 769; assay: as above; assay type: cell-based; set-up: key: r = resistant (no detectable zone of inhibition)
# Procedure, shortened: as §1
# [5] = test system: Bacillus megaterium SBUG 1152; assay: agar diffusion test (Test System 1, antimicrobial effect); assay type: cell-based
# Procedure, shortened: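 Paper discs loaded with 10 μg, 50 μg or 100 μg of test substance (methanol or water solution) placed on nutrient agar seeded with 10^6 cells of a 17-h B. megaterium culture. After 20 h at 37° C., zone of inhibition measured as diameter in mm.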
# [6] = test system: Escherichia coli SBUG 1135; assay: as above; assay type: cell-based
# Procedure, shortened: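 Disc diffusion: compound at 10 μg, 50 μg, 100 μg on sensi-discs, three per plate of nutrient agar seeded with ~10^6 E. coli SBUG 1135 (overnight culture, 17 h, 37° C, diluted 1:100). After 20 h incubation at 37° C, zone diameter recorded in mm.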
Compound,Diameter of zone of inhibition (S. aureus 36881; Quantity n 0.029),Diameter of zone of inhibition (S. aureus 36881; Quantity n 0.14) [mm],Diameter of zone of inhibition (S. aureus 36881; Quantity n 0.29) [mm],Diameter of zone of inhibition (S. aureus 33490; Quantity n [μmol] 0.029) [mm],Diameter of zone of inhibition (S. aureus 33490; Quantity n [μmol] 0.14) [mm],Diameter of zone of inhibition (S. aureus 33490; Quantity n [μmol] 0.29) [mm],Diameter of zone of inhibition (S. aureus 39105; Quantity n 0.029),Diameter of zone of inhibition (S. aureus 39105; Quantity n 0.14) [mm],Diameter of zone of inhibition (S. aureus 39105; Quantity n 0.29) [mm],Diameter of zone of inhibition (S. aureus 34289; Quantity n [mol] 0.029),Diameter of zone of inhibition (S. aureus 34289; Quantity n [mol] 0.14),Diameter of zone of inhibition (S. aureus 34289; Quantity n [mol] 0.29),Diameter of zone of inhibition ([1]; Quantity n 0.029),Diameter of zone of inhibition ([1]; Quantity n 0.14) [mm],Diameter of zone of inhibition ([1]; Quantity n 0.29) [mm],Diameter of zone of inhibition (S. aureus 520; Quantity n [mol] 0.029),Diameter of zone of inhibition (S. aureus 520; Quantity n [mol] 0.14),Diameter of zone of inhibition (S. aureus 520; Quantity n [mol] 0.29),Diameter of zone of inhibition (S. aureus 526; Quantity n 0.029),Diameter of zone of inhibition (S. aureus 526; Quantity n 0.14),also measured
"O=C(O)C1=C(Cl)CSC2C(NC(=O)C(NC3=C(C(=O)NCCO)C(=O)C=CC3=O)c3ccccc3)C(=O)N12 (centres unmarked) [1i, 3-chlorine-7-{2-[2-(2-hydroxyethylcarbamoyl)-3,6-dioxocyclohexa-1,4-dienylamino]-2-phenyl-acetylamino}-8-oxo-1-thia-5-azabicyclo[4.2.0]oct-3-en-4-carboxylic acid]",r,12,18,14,22,26,r,18,22,r,r,r,r,12,16,r,r,r,r,r,Diameter of zone of inhibition (S. aureus 526; Quantity n 0.29): r; Survival/tested mice n/n ([2]; 2 × 0.5 mg (25 mg/kg) i.p.): 12/12; Diameter of zone of inhibition (B. subtilis AWD 166; Quantity n 0.029): 30 mm; Diameter of zone of inhibition (B. subtilis AWD 166; Quantity n 0.14): 36 mm; Diameter of zone of inhibition (B. subtilis AWD 166; Quantity n 0.29): 38 mm; Diameter of zone of inhibition (S. epidermidis 125; Quantity n 0.029): 20 mm; Diameter of zone of inhibition (S. epidermidis 125; Quantity n 0.14): 28 mm; Diameter of zone of inhibition (S. epidermidis 125; Quantity n 0.29): 32 mm; Diameter of zone of inhibition ([3]; Quantity n 0.029): r; Diameter of zone of inhibition ([3]; Quantity n 0.14): 10 mm; Diameter of zone of inhibition ([3]; Quantity n 0.29): 14 mm; Diameter of zone of inhibition ([4]; Quantity n 0.029): r; Diameter of zone of inhibition ([4]; Quantity n 0.14): r; Diameter of zone of inhibition ([4]; Quantity n 0.29): r; Diameter of zone of inhibition ([5]; Quantity n 0.029): 26 mm; Diameter of zone of inhibition ([5]; Quantity n 0.14): 32 mm; Diameter of zone of inhibition ([5]; Quantity n 0.29): 34 mm; Diameter of zone of inhibition ([6]; Quantity n 0.029): 18 mm; Diameter of zone of inhibition ([6]; Quantity n 0.14): 24 mm; Diameter of zone of inhibition ([6]; Quantity n 0.29): 28 mm
"3-chlorine-7-[2-(2-methoxycarbonyl-3,6-dioxocyclohexa-1,4-dienylamino)-2-phenyl-acetylamino]-8-oxo-1-thia-5-azabicyclo[4.2.0]oct-3-en-4-carboxylic acid [1k]",r,14,18,16,24,26,8 mm,20,22,r,r,r,r,14,18,r,r,10 mm,r,r,Diameter of zone of inhibition (S. aureus 526; Quantity n 0.29): r; Survival/tested mice n/n ([2]; 2 × 1.5 mg (75 mg/kg) i.p.): 3/3; Diameter of zone of inhibition (B. subtilis AWD 166; Quantity n 0.029): 30 mm; Diameter of zone of inhibition (B. subtilis AWD 166; Quantity n 0.14): 36 mm; Diameter of zone of inhibition (B. subtilis AWD 166; Quantity n 0.29): 38 mm; Diameter of zone of inhibition (S. epidermidis 125; Quantity n 0.029): 20 mm; Diameter of zone of inhibition (S. epidermidis 125; Quantity n 0.14): 30 mm; Diameter of zone of inhibition (S. epidermidis 125; Quantity n 0.29): 32 mm; Diameter of zone of inhibition ([3]; Quantity n 0.029): r; Diameter of zone of inhibition ([3]; Quantity n 0.14): 12 mm; Diameter of zone of inhibition ([3]; Quantity n 0.29): 14 mm; Diameter of zone of inhibition ([4]; Quantity n 0.029): r; Diameter of zone of inhibition ([4]; Quantity n 0.14): 8 mm; Diameter of zone of inhibition ([4]; Quantity n 0.29): 14 mm; Diameter of zone of inhibition ([5]; Quantity n 0.029): 30 mm; Diameter of zone of inhibition ([5]; Quantity n 0.14): 36 mm; Diameter of zone of inhibition ([5]; Quantity n 0.29): 38 mm; Diameter of zone of inhibition ([6]; Quantity n 0.029): 18 mm; Diameter of zone of inhibition ([6]; Quantity n 0.14): 24 mm; Diameter of zone of inhibition ([6]; Quantity n 0.29): 28 mm
